Data reported in the NIST ThermoML archive (doi:10.1016/j.tca.2015.02.014).
Numbers after ± are expanded uncertainties.

Assay: mn = molality of the nth substance listed, in mol/kg
Conditions: 100 kPa, Liquid; for viscosity: Capillary tube (Ostwald / Ubbelohde) method; for speed of sound: Frequency=3 MHz, Sing-around technique in a fixed-path interferometer; for mass density: Vibrating tube method

C[C@H](CCC(=O)[O-])[C@H]1CC[C@H]2[C@@H]3[C@H](O)C[C@@H]4C[C@H](O)CC[C@]4(C)[C@H]3C[C@H](O)[C@]12C.[Na+] [sodium cholate] + O
Conditions | mass density, 308.15 K [kg/m3] | mass density, 313.15 K [kg/m3] | mass density, 318.15 K [kg/m3] | speed of sound, 308.15 K [m/s] | speed of sound, 313.15 K [m/s] | speed of sound, 318.15 K [m/s] | viscosity, 308.15 K [mPa·s] | viscosity, 313.15 K [mPa·s] | viscosity, 318.15 K [mPa·s]
m1 = 0.001 | 994.145 ± 0.14 | 992.351 ± 0.14 | 990.351 ± 0.14 | 1520.2 ± 1.3 | 1529.3 ± 1.3 | 1536.9 ± 1.3 | 0.7202 ± 0.021 | 0.6535 ± 0.021 | 0.5973 ± 0.021
m1 = 0.002 | 994.255 ± 0.13 | 992.449 ± 0.14 | 990.445 ± 0.14 | 1520.5 ± 1.3 | 1529.6 ± 1.3 | 1537.2 ± 1.3 | 0.7212 ± 0.021 | 0.6544 ± 0.021 | 0.5985 ± 0.021
m1 = 0.003 | 994.348 ± 0.13 | 992.547 ± 0.14 | 990.539 ± 0.14 | 1520.7 ± 1.3 | 1529.8 ± 1.3 | 1537.3 ± 1.3 | 0.7225 ± 0.021 | 0.6556 ± 0.021 | 0.5997 ± 0.021
m1 = 0.004 | 994.455 ± 0.14 | 992.655 ± 0.14 | 990.629 ± 0.14 | 1520.9 ± 1.3 | 1530 ± 1.3 | 1537.5 ± 1.3 | 0.7241 ± 0.021 | 0.6571 ± 0.021 | 0.6013 ± 0.021
m1 = 0.006 | 994.7 ± 0.13 | 992.873 ± 0.14 | 990.864 ± 0.14 | 1521.4 ± 1.3 | 1530.4 ± 1.3 | 1537.9 ± 1.3 | 0.7265 ± 0.021 | 0.6595 ± 0.021 | 0.6035 ± 0.021
m1 = 0.008 | 994.885 ± 0.13 | 993.087 ± 0.14 | 991.051 ± 0.14 | 1522 ± 1.3 | 1530.9 ± 1.3 | 1538.3 ± 1.3 | 0.7295 ± 0.021 | 0.662 ± 0.021 | 0.6062 ± 0.021
m1 = 0.01 | 995.101 ± 0.13 | 993.304 ± 0.14 | 991.257 ± 0.14 | 1522.4 ± 1.3 | 1531.3 ± 1.3 | 1538.7 ± 1.3 | 0.7323 ± 0.021 | 0.6648 ± 0.021 | 0.609 ± 0.021
m1 = 0.014 | 995.521 ± 0.13 | 993.711 ± 0.14 | 991.671 ± 0.23 | 1523.4 ± 1.3 | 1532.3 ± 1.3 | 1539.5 ± 1.3 | 0.7415 ± 0.021 | 0.6722 ± 0.021 | 0.6161 ± 0.021
m1 = 0.018 | 995.957 ± 0.13 | 994.126 ± 0.14 | 992.088 ± 0.15 | 1524.2 ± 1.3 | 1533.1 ± 1.3 | 1540.4 ± 1.3 | 0.7461 ± 0.021 | 0.6772 ± 0.021 | 0.6201 ± 0.021
m1 = 0.022 | 996.357 ± 0.13 | 994.505 ± 0.14 | 992.491 ± 0.14 | 1525 ± 1.3 | 1533.9 ± 1.3 | 1541.2 ± 1.3 | 0.7509 ± 0.021 | 0.6813 ± 0.021 | 0.6245 ± 0.021
m1 = 0.026 | 996.744 ± 0.13 | 994.935 ± 0.14 | 992.905 ± 0.14 | 1525.8 ± 1.3 | 1534.6 ± 1.3 | 1541.9 ± 1.3 | 0.7561 ± 0.021 | 0.6865 ± 0.021 | 0.6291 ± 0.021
m1 = 0.03 | 997.176 ± 0.13 | 995.354 ± 0.14 | 993.313 ± 0.14 | 1526.4 ± 1.3 | 1535.2 ± 1.3 | 1542.5 ± 1.3 | 0.7619 ± 0.021 | 0.6918 ± 0.021 | 0.6328 ± 0.021
